Measurements published in patent US6413607B1, “Cyanine dyes” (Kabushiki Kaisha Hayashibara Seibutsu Kagaku Kenkyujo, priority 1999, dated 2002).
Where two headings read alike, the source gives them in different places.

Legend:
Format in all cases: physicochemical
[1] = Light characteristics: visible absorption spectrum in methanol and as thin layer over glass; conditions: for Maximum absorption (nm) CH3OH: dissolved in methanol; for Maximum absorption (nm) Thin Layer: formed into layer over glass; for Shift of absorption maximum compared with conventional related compounds: thin layer, in words
Description: The cyanine dyes as listed in Table 1 of the present invention and known compounds represented by Chemical Formulae 33 and 34 as controls were measured for visible absorption spectrum when dissolved in methanol and formed into layers over glasses.

[2] = Solubility of cyanine dye in TFP; conditions: in TFP at 20° C.
Description: For the cyanine dyes in Table 1, they were measured for solubility in TFP at 20° C.
When coating over the substrates for optical recording media, the cyanine dyes are generally prepared into 0.1-10 w/w % solutions.

[3] = Decomposition point by DTA and TGA; conditions: for Decomposability at temperatures around decomposition point / Rapidity of decomposition among Chemical Formulae 1, 4 and 6 to 8: in words; for Decomposition point (° C.): temperature increase 10° C./min
Description: An adequate amount of either of the cyanine dyes in Table 1 as a test specimen was placed in a vessel and subjected to conventional differential thermal analysis (hereinafter abbreviated as “DTA”) and thermogravimetric analysis (hereinafter abbreviated as “TGA”) using “MODEL TG/DTA 220”, a digital thermo analyzer commercialized by Seiko Instruments Inc., Tokyo, Japan, to determine the melting point, i.e., a temperature at which the cyanine dyes as test specimens begin to absorb heat on […], and to determine the decomposition point, i.e., a temperature at which the cyanine dyes as test specimens begin to lose weight on […]. In parallel, conventional related compounds represented by Chemical Formulae 33 and 34 were analyzed similarly as above. FIGS. 2 and 3 are respectively the results of the cyanine dye represented by Chemical Formula 4 of the present invention and conventional related compound represented by Chemical Formula 34. In DTA and TGA, the environmental temperature was set to an increasing temperature mode at a rate of 10° C./min.
As evident from Table 1 and FIGS. 2 and 3, all the conventional related compounds had melting points and decomposition points which were different from each other, and very slowly decomposed at temperatures around their decomposition points. […] Most specifically, conventional known compounds had both melting points and decomposition points which were different from each other, i.e., the difference ranged from 17 to 108° C., while most of the cyanine dyes of the present invention had decomposition points which were undistinguishable from their melting points or had only the decomposition points.

[4] = Decomposition rate: differential calorimetric curve (DSC), half value width; conditions: for Calorific value / Decomposition initiating point / Decomposition peak point / Half value width: DSC, 10° C./min; for Calorific value / Decomposition initiating point / Decomposition peak point: nitrogen atmosphere; for Half value width: width of decomposition peak at half calorific value, nitrogen
Description: For the cyanine dyes represented by Chemical Formulae 4, 6 and 8 of the present invention, they were in a usual manner examined for differential calorimetric curve when heated under an increasing temperature rate of 10° C./min and nitrogen atmospheric conditions using “MODEL DSC220U”, a digital thermo analyzer commercialized by Seiko Instruments Inc., Tokyo, Japan. In parallel, conventional cyanine dye represented by Chemical Formula 33 was examined for differential calorimetric curve similarly as above. FIGS. 4 and 5 are respectively differential calorimetric curves for the cyanine dyes represented by Chemical Formulae 4 and 33.
Based on the results of the differential calorimetric curves, the half calorific vallues at descomposition peaks for each cyanine dyes were determined, and the thermal difference between the two points, having the determined half calorific values at both ends of each descomposition peaks (hereinafter designated as “a half value width”), was determined.
As evident from the results in Table 2 and FIGS. 4 and 5, the cyanine dyes of the present invention instantly and promptly decomposed in spite of their substantially the same calorific-values as compared with conventional one. […] Similarly as in conventional related compounds represented by Formulae 33 and 34, dyes with a relatively-slow decomposition rate are substantially difficult to form stable minute pits at a relatively-high density on a restricted recording surface of high-density optical recording media such as DVD-Rs, as mentioned above. Varying depending on glass transition temperature of substrate, when used as a light absorbent in optical recording media, dyes with a lower decomposition point can be generally used to write information by using a lower-power laser beam as a merit, however, as a demerit, when exposed to laser beam for a relatively-long period of time on reading, the dyes tend to accumulate heat and deform parts around pits and other parts free of pit on recording surfaces, resulting in large jitters and reading errors. The cyanine dyes of the present invention substantially absorb a visible light with a wavelength around 650 nm when formed into a thin layer, have decomposition points which are undistinguishable from their melting points or only have the decomposition points of relatively-high temperatures, and have an outstandingly-high decomposition rate at around the decomposition points. These characteristics mean that high-density optical recording media, having a relatively-small jitter, insubstantial reading error, and satisfactory stability of exposure to environmental light such as reading light and natural light, can be obtained by using the cyanine dyes of the present invention as light absorbents. The reason of why the half value width was employed as an index for the decomposability in this example was due to the fact that it can effectively evaluate the decomposition rate of test specimens.

| SMILES | Maximum absorption (nm) CH3OH [1] | Maximum absorption (nm) Thin Layer [1] | Shift of absorption maximum compared with conventional related compounds [1] | Solubility ([2]; organic solvent or mixture, read-out: Solubility) | Decomposability at temperatures around decomposition point [3] | Rapidity of decomposition among Chemical Formulae 1, 4 and 6 to 8 [3] | Solubility [2] | Decomposition point (° C.) [3] | Calorific value [4] | Decomposition initiating point [4] | Decomposition peak point [4] | Half value width as level of that of conventional cyanine dye ([4]; relative to Chemical Formula 33) | Half value width [4] |
| --- | --- | --- | --- | --- | --- | --- | --- | --- | --- | --- | --- | --- | --- |
| CN1C(=CC=CC2=[N+](C)c3ccc([N+](=O)[O-])cc3C2(C)C)C(C)(C)c2c1ccc1ccccc21 [Chemical Formula 1] | 573 nm | 609 nm | shifted their absorption maxima to longer wavelengths by a large margin | 36 mg/mL | instantly decomposed at once | decomposed most rapidly |  |  |  |  |  |  |  |
| CCCCN1C(=CC=CC2=[N+](C)c3ccc([N+](=O)[O-])cc3C2(C)C)C(C)(C)c2c1ccc1ccccc21.CCN(CC)c1ccc2c(c1)[O][Co-]1([O]c3ccc([N+](=O)[O-])cc3N=N2)[O]c2ccc([N+](=O)[O-])cc2N=Nc2ccc(N(CC)CC)cc2[O]1 [Chemical Formula 3] | 540 nm | 557 nm |  |  |  |  | 22 mg/mL | 271.3 °C |  |  |  |  |  |
| CCN1C(=CC=CC2=[N+](CC)c3ccc([N+](=O)[O-])cc3C2(C)C)C(C)(C)c2c1ccc1ccccc21.[O-][Cl+3]([O-])([O-])[O-] [Chemical Formula 4] | 576 nm | 609 nm | shifted their absorption maxima to longer wavelengths by a large margin |  | instantly decomposed at once | decomposed most rapidly | 126 mg/mL |  | 1826 mJ/mg | 295.8 °C | 298.6 °C | ⅙ | 7.7 °C |
| CCCN1C(=CC=CC2=[N+](CCC)c3ccc([N+](=O)[O-])cc3C2(C)C)C(C)(C)c2c1ccc1ccccc21.[O-][Cl+3]([O-])([O-])[O-] [Chemical Formula 6] | 578 nm | 609 nm | shifted their absorption maxima to longer wavelengths by a large margin |  |  | decomposed most rapidly | 164 mg/mL |  | 1827 mJ/mg | 279.5 °C | 285.5 °C |  | 13.2 °C |
| CCCCN1C(=CC=CC2=[N+](CCC)c3ccc([N+](=O)[O-])cc3C2(C)C)C(C)(C)c2c1ccc1ccccc21.[O-][Cl+3]([O-])([O-])[O-] [Chemical Formula 7] | 577 nm | 609 nm | shifted their absorption maxima to longer wavelengths by a large margin |  |  | decomposed most rapidly | 210 mg/mL | 261.2 °C |  |  |  |  |  |
| CCCCN1C(=CC=CC2=[N+](CCCC)c3ccc([N+](=O)[O-])cc3C2(C)C)C(C)(C)c2c1ccc1ccccc21.[O-][Cl+3]([O-])([O-])[O-] [Chemical Formula 8] | 577 nm | 609 nm | shifted their absorption maxima to longer wavelengths by a large margin |  |  |  | 245 mg/mL | 262.4 °C | 1663 mJ/mg | 249.9 °C | 273.5 °C |  | 32.2 °C |
| CCN1C(=CC=CC2=[N+](CC)c3ccc([N+](=O)[O-])cc3C2(C)C)C(C)(C)c2ccc3ccccc3c21.[O-][Cl+3]([O-])([O-])[O-] [Chemical Formula 15] | 562 nm | 617 nm | shifted their absorption maxima to longer wavelengths by a large margin |  |  |  | 229 mg/mL | 270.7 °C |  |  |  |  |  |
| CCCCN1C(=CC=CC2=[N+](C)c3ccc(S(=O)(=O)N(CC)CC)cc3C2(C)C)C(C)(C)c2c1ccc1ccccc21.F[P-](F)(F)(F)(F)F [Chemical Formula 23] | 591 nm | 591 nm |  |  |  |  | >200 mg/mL | 273.5 °C |  |  |  |  |  |
| CCCCN1C(=CC=CC2=[N+](C)c3ccc(S(=O)(=O)N(CC)CC)cc3C2(C)C)C(C)(C)c2c1ccc1ccccc21.CCN(CC)c1ccc2c(c1)[O][Co-]1([O]c3ccc([N+](=O)[O-])cc3N=N2)[O]c2ccc([N+](=O)[O-])cc2N=Nc2ccc(N(CC)CC)cc2[O]1 [Chemical Formula 24] | 538 nm | 556 nm |  |  |  |  | 197 mg/mL |  |  |  |  |  |  |
| CCCCN1C(=CC=CC2=[N+](C)c3ccc(S(=O)(=O)N(CC)CC)cc3C2(C)C)C(C)(C)c2c1ccc1ccccc21.O=[N+]([O-])c1ccc2c(c1)N=Nc1c(ccc3ccccc13)[O][Ni-]1([O]2)[O]c2ccc([N+](=O)[O-])cc2N=Nc2c(ccc3ccccc23)[O]1 [Chemical Formula 26] | 570 nm | 594 nm |  |  |  |  | 127 mg/mL | 257.3 °C |  |  |  |  |  |
| CCN1C(=CC=CC2=[N+](CC)c3ccc(S(=O)(=O)N(CC)CC)cc3C2(C)C)C(C)(C)c2c1ccc1ccccc21.[O-][Cl+3]([O-])([O-])[O-] [Chemical Formula 27] | 571 nm | 592 nm |  |  |  |  | >200 mg/mL |  |  |  |  |  |  |
| CCCCN1/C(=C/C=C/C2=[N+](CCCC)c3ccccc3C2(C)C)C(C)(C)c2c1ccc1ccccc21 [Chemical Formula 33, reference compound] | 568 nm | 600 nm |  |  |  |  |  | 268.1 °C | 1467 mJ/mg | 255.4 °C | 297.4 °C |  | 49.9 °C |
| CCCCN1/C(=C/C=C/C2=[N+](CCCC)c3ccc(C)cc3C2(C)C)C(C)(C)c2c1ccc1ccccc21 [Chemical Formula 34, reference compound] | 574 nm | 599 nm |  |  |  |  |  | 267 °C |  |  |  |  |  |
